Where two headings read alike, the source gives them in different places.
Assay: Toxicokinetics test in the satellite groups (UPLC-MS/MS of rat plasma)
Type: in vivo
Settings: for AUC(0-t) / Cmax / Tmax / half-life: SD, rat, plasma, po; for half-life: read-out: T1/2 mean (converted)
Experimental: SD rats (5 ~ 6 weeks, 3/group/sex) were randomly allocated to three treatment groups and given the same dosage as those in the repeated toxicity experiment for 28 days. […] Carbamazepine was chosen as the internal standard (IS). The blood samples were centrifuged to obtain plasma. Then, 300 μL of acetonitrile containing 40 ng of IS was added to 100 μL of plasma. After vortexing for 1 min, the mixture was centrifuged at 17,000 rpm for 15 min at 4 °C. The supernatant of each sample was injected into a UPLC–MS/MS system for determination. The injection volume was 1 μL. UPLC–MS analysis was performed on a Thermo Fisher Scientific Ultimate 3000 UPLC system (San Jose, USA) and an API 4000 QTRAP mass spectrometer (Foster City, USA) equipped with an ESI source. The mobile phase consisted of 2 solvents: (A) water containing 0.1% formic acid and (B) 100% acetonitrile. For MS, multiple reaction monitoring (MRM) in positive ion mode was used as the scanning mode for the main components and IS in the plasma samples. The dwell time (DT), collision energy (CE), quadrupole 1 pre-rod bias (Q1) and quadrupole 3 pre-rod bias (Q3) are listed in Table 3.

[1] = female, female rats, Day 1, highest dose (berberine 72.08, epiberberine 7.42, coptisine 7.42, palmatine 18.26, jatrorrhizine 2.80, columbamine 5.93 mg/kg)
[2] = female, female rats, Day 1, lowest dose (berberine 8.01, epiberberine 0.82, coptisine 1.38, palmatine 2.03, jatrorrhizine 0.31, columbamine 0.66 mg/kg)
[3] = female, female rats, Day 1, middle dose (berberine 24.03, epiberberine 2.47, coptisine 2.47, palmatine 6.09, jatrorrhizine 0.93, columbamine 1.98 mg/kg)
[4] = female, female rats, Day 28, highest dose (berberine 72.08, epiberberine 7.42, coptisine 7.42, palmatine 18.26, jatrorrhizine 2.80, columbamine 5.93 mg/kg)
[5] = female, female rats, Day 28, lowest dose (berberine 8.01, epiberberine 0.82, coptisine 1.38, palmatine 2.03, jatrorrhizine 0.31, columbamine 0.66 mg/kg)
[6] = female, female rats, Day 28, middle dose (berberine 24.03, epiberberine 2.47, coptisine 2.47, palmatine 6.09, jatrorrhizine 0.93, columbamine 1.98 mg/kg)
[7] = male, male rats, Day 1, highest dose (berberine 72.08, epiberberine 7.42, coptisine 7.42, palmatine 18.26, jatrorrhizine 2.80, columbamine 5.93 mg/kg)
[8] = male, male rats, Day 1, lowest dose (berberine 8.01, epiberberine 0.82, coptisine 1.38, palmatine 2.03, jatrorrhizine 0.31, columbamine 0.66 mg/kg)
[9] = male, male rats, Day 1, middle dose (berberine 24.03, epiberberine 2.47, coptisine 2.47, palmatine 6.09, jatrorrhizine 0.93, columbamine 1.98 mg/kg)
[10] = male, male rats, Day 28, highest dose (berberine 72.08, epiberberine 7.42, coptisine 7.42, palmatine 18.26, jatrorrhizine 2.80, columbamine 5.93 mg/kg)
[11] = male, male rats, Day 28, lowest dose (berberine 8.01, epiberberine 0.82, coptisine 1.38, palmatine 2.03, jatrorrhizine 0.31, columbamine 0.66 mg/kg)
[12] = male, male rats, Day 28, middle dose (berberine 24.03, epiberberine 2.47, coptisine 2.47, palmatine 6.09, jatrorrhizine 0.93, columbamine 1.98 mg/kg)

Compound: COc1cc2c(cc1O)-c1cc3ccc(OC)c(OC)c3c[n+]1CC2 [columbamine]
- AUC(0-t) (female, 0.4 g/kg, female rats, Day 1, low dose TAZF 0.4 g/kg by gavage, read-out: AUC0-t): 71.4 ± 80.1 ng·h/mL
- Cmax (female, 0.4 g/kg, female rats, Day 1, low dose TAZF 0.4 g/kg by gavage, read-out: Cmax): 30 ± 20.7 ng/mL
- AUC(0-t) (female, 0.4 g/kg, female rats, Day 28, low dose TAZF 0.4 g/kg by gavage, read-out: AUC0-t): 68.1 ± 76.9 ng·h/mL
- Cmax (female, 0.4 g/kg, female rats, Day 28, low dose TAZF 0.4 g/kg by gavage, read-out: Cmax): 30.3 ± 40 ng/mL
- AUC(0-t) (female, 3.7 g/kg, female rats, Day 1, high dose TAZF 3.7 g/kg by gavage, read-out: AUC0-t): 41.1 ± 10 ng·h/mL
- Cmax (female, 3.7 g/kg, female rats, Day 1, high dose TAZF 3.7 g/kg by gavage, read-out: Cmax): 37.7 ± 30.4 ng/mL
- AUC(0-t) (female, 3.7 g/kg, female rats, Day 28, high dose TAZF 3.7 g/kg by gavage, read-out: AUC0-t): 12.2 ± 4.52 ng·h/mL
- Cmax (female, 3.7 g/kg, female rats, Day 28, high dose TAZF 3.7 g/kg by gavage, read-out: Cmax): 2.98 ± 0.24 ng/mL
- Tmax [1]: 0.5 h
- AUC(0-t) (female, female rats, Day 1, highest dose (berberine 72.08, epiberberine 7.42, coptisine 7.42, palmatine 18.26, jatrorrhizine 2.80, columbamine 5.93 mg/kg), read-out: AUC0-t mean): 41.1 ng·h/mL
- Cmax (female, female rats, Day 1, highest dose (berberine 72.08, epiberberine 7.42, coptisine 7.42, palmatine 18.26, jatrorrhizine 2.80, columbamine 5.93 mg/kg), read-out: Cmax mean): 37.7 ng/mL
- half-life [1]: 8.24 h
- Tmax [2]: 2.33 h
- AUC(0-t) (female, female rats, Day 1, lowest dose (berberine 8.01, epiberberine 0.82, coptisine 1.38, palmatine 2.03, jatrorrhizine 0.31, columbamine 0.66 mg/kg), read-out: AUC0-t mean): 71.4 ng·h/mL
- Cmax (female, female rats, Day 1, lowest dose (berberine 8.01, epiberberine 0.82, coptisine 1.38, palmatine 2.03, jatrorrhizine 0.31, columbamine 0.66 mg/kg), read-out: Cmax mean): 30 ng/mL
- half-life [2]: 4.31 h
- Tmax [3]: 0.83 h
- AUC(0-t) (female, female rats, Day 1, middle dose (berberine 24.03, epiberberine 2.47, coptisine 2.47, palmatine 6.09, jatrorrhizine 0.93, columbamine 1.98 mg/kg), read-out: AUC0-t mean): 59.2 ng·h/mL
- Cmax (female, female rats, Day 1, middle dose (berberine 24.03, epiberberine 2.47, coptisine 2.47, palmatine 6.09, jatrorrhizine 0.93, columbamine 1.98 mg/kg), read-out: Cmax mean): 39.6 ng/mL
- half-life [3]: 7.78 h
- Tmax [4]: 1.17 h
- AUC(0-t) (female, female rats, Day 28, highest dose (berberine 72.08, epiberberine 7.42, coptisine 7.42, palmatine 18.26, jatrorrhizine 2.80, columbamine 5.93 mg/kg), read-out: AUC0-t mean): 12.2 ng·h/mL
- Cmax (female, female rats, Day 28, highest dose (berberine 72.08, epiberberine 7.42, coptisine 7.42, palmatine 18.26, jatrorrhizine 2.80, columbamine 5.93 mg/kg), read-out: Cmax mean): 2.98 ng/mL
- half-life [4]: 12.4 h
- Tmax [5]: 0.42 h
- AUC(0-t) (female, female rats, Day 28, lowest dose (berberine 8.01, epiberberine 0.82, coptisine 1.38, palmatine 2.03, jatrorrhizine 0.31, columbamine 0.66 mg/kg), read-out: AUC0-t mean): 68.1 ng·h/mL
- Cmax (female, female rats, Day 28, lowest dose (berberine 8.01, epiberberine 0.82, coptisine 1.38, palmatine 2.03, jatrorrhizine 0.31, columbamine 0.66 mg/kg), read-out: Cmax mean): 30.3 ng/mL
- half-life [5]: 10.9 h
- Tmax [6]: 1.5 h
- AUC(0-t) (female, female rats, Day 28, middle dose (berberine 24.03, epiberberine 2.47, coptisine 2.47, palmatine 6.09, jatrorrhizine 0.93, columbamine 1.98 mg/kg), read-out: AUC0-t mean): 9.42 ng·h/mL
- Cmax (female, female rats, Day 28, middle dose (berberine 24.03, epiberberine 2.47, coptisine 2.47, palmatine 6.09, jatrorrhizine 0.93, columbamine 1.98 mg/kg), read-out: Cmax mean): 1.35 ng/mL
- half-life [6]: 10.7 h
- AUC(0-t) (male, 0.4 g/kg, male rats, Day 1, low dose TAZF 0.4 g/kg by gavage, read-out: AUC0-t): 153 ± 54.9 ng·h/mL
- Cmax (male, 0.4 g/kg, male rats, Day 1, low dose TAZF 0.4 g/kg by gavage, read-out: Cmax): 32.1 ± 28.7 ng/mL
- AUC(0-t) (male, 0.4 g/kg, male rats, Day 28, low dose TAZF 0.4 g/kg by gavage, read-out: AUC0-t): 31.1 ± 2.21 ng·h/mL
- Cmax (male, 0.4 g/kg, male rats, Day 28, low dose TAZF 0.4 g/kg by gavage, read-out: Cmax): 44.2 ± 42.3 ng/mL
- AUC(0-t) (male, 3.7 g/kg, male rats, Day 1, high dose TAZF 3.7 g/kg by gavage, read-out: AUC0-t): 276 ± 92 ng·h/mL
- Cmax (male, 3.7 g/kg, male rats, Day 1, high dose TAZF 3.7 g/kg by gavage, read-out: Cmax): 46.5 ± 30.3 ng/mL
- AUC(0-t) (male, 3.7 g/kg, male rats, Day 28, high dose TAZF 3.7 g/kg by gavage, read-out: AUC0-t): 65.1 ± 6.74 ng·h/mL
- Cmax (male, 3.7 g/kg, male rats, Day 28, high dose TAZF 3.7 g/kg by gavage, read-out: Cmax): 16.4 ± 11.8 ng/mL
- Tmax [7]: 4 h
- AUC(0-t) (male, male rats, Day 1, highest dose (berberine 72.08, epiberberine 7.42, coptisine 7.42, palmatine 18.26, jatrorrhizine 2.80, columbamine 5.93 mg/kg), read-out: AUC0-t mean): 276 ng·h/mL
- Cmax (male, male rats, Day 1, highest dose (berberine 72.08, epiberberine 7.42, coptisine 7.42, palmatine 18.26, jatrorrhizine 2.80, columbamine 5.93 mg/kg), read-out: Cmax mean): 46.5 ng/mL
- half-life [7]: 10.9 h
- Tmax [8]: 10 h
- AUC(0-t) (male, male rats, Day 1, lowest dose (berberine 8.01, epiberberine 0.82, coptisine 1.38, palmatine 2.03, jatrorrhizine 0.31, columbamine 0.66 mg/kg), read-out: AUC0-t mean): 153 ng·h/mL
- Cmax (male, male rats, Day 1, lowest dose (berberine 8.01, epiberberine 0.82, coptisine 1.38, palmatine 2.03, jatrorrhizine 0.31, columbamine 0.66 mg/kg), read-out: Cmax mean): 32.1 ng/mL
- half-life [8]: 47.8 h
- Tmax [9]: 1.83 h
- AUC(0-t) (male, male rats, Day 1, middle dose (berberine 24.03, epiberberine 2.47, coptisine 2.47, palmatine 6.09, jatrorrhizine 0.93, columbamine 1.98 mg/kg), read-out: AUC0-t mean): 207 ng·h/mL
- Cmax (male, male rats, Day 1, middle dose (berberine 24.03, epiberberine 2.47, coptisine 2.47, palmatine 6.09, jatrorrhizine 0.93, columbamine 1.98 mg/kg), read-out: Cmax mean): 41.7 ng/mL
- half-life [9]: 59.9 h
- Tmax [10]: 4.08 h
- AUC(0-t) (male, male rats, Day 28, highest dose (berberine 72.08, epiberberine 7.42, coptisine 7.42, palmatine 18.26, jatrorrhizine 2.80, columbamine 5.93 mg/kg), read-out: AUC0-t mean): 65.1 ng·h/mL
- Cmax (male, male rats, Day 28, highest dose (berberine 72.08, epiberberine 7.42, coptisine 7.42, palmatine 18.26, jatrorrhizine 2.80, columbamine 5.93 mg/kg), read-out: Cmax mean): 16.4 ng/mL
- half-life [10]: 11.2 h
- Tmax [11]: 0.83 h
- AUC(0-t) (male, male rats, Day 28, lowest dose (berberine 8.01, epiberberine 0.82, coptisine 1.38, palmatine 2.03, jatrorrhizine 0.31, columbamine 0.66 mg/kg), read-out: AUC0-t mean): 31.1 ng·h/mL
- Cmax (male, male rats, Day 28, lowest dose (berberine 8.01, epiberberine 0.82, coptisine 1.38, palmatine 2.03, jatrorrhizine 0.31, columbamine 0.66 mg/kg), read-out: Cmax mean): 44.2 ng/mL
- half-life [11]: 7.52 h
- Tmax [12]: 12 h
- AUC(0-t) (male, male rats, Day 28, middle dose (berberine 24.03, epiberberine 2.47, coptisine 2.47, palmatine 6.09, jatrorrhizine 0.93, columbamine 1.98 mg/kg), read-out: AUC0-t mean): 90.6 ng·h/mL
- Cmax (male, male rats, Day 28, middle dose (berberine 24.03, epiberberine 2.47, coptisine 2.47, palmatine 6.09, jatrorrhizine 0.93, columbamine 1.98 mg/kg), read-out: Cmax mean): 21.4 ng/mL
- half-life [12]: 4.07 h
- Systemic exposure after 28 days of administration vs single administration (rats, oral TAZF): much lower
